Data set [1] in a line: Human liver microsome (HLM) clearance assay. It is filed as in vitro ADME. Conditions: human liver microsomes 0.5 mg/mL, NADPH 1 mM, 0.5 μM compound, 40 min. As to the method:
Example 63: Human Liver Microsome (HLM) Clearance Assay
Samples were taken out before addition of NADPH, and at 5, 10, 20 and 40 minutes thereafter and protein precipitation using cold acetonitrile with added internal standard was performed prior to centrifugation and sample analysis using compound specific LCMS/MS methods. Control incubations in buffer and without NADPH were performed in the same manner. Compound depletion was determined and apparent clearance (CLapp) was calculated.
Background: Liver microsomes are a subcellular fraction often used to study metabolism.

A short description of the next data set: Solubility assay. The format is physicochemical. Conditions: 0.067 M phosphate buffer pH 6.5, 24 hours shaking, from 10 mM DMSO stock; for solubility at 24 h: aqueous buffer, kinetic from dmso stock. As to the method:
After centrifugation, the supernatant was analyzed by HPLC-UV. The solubility was defined as the concentration of the test substance in the selected solvent. It was determined by correlation with an external standard calibration curve.

A further data set has as its target T1, recombinant IL-17AA (Homo sapiens, UniProt Q16552).
T1 construct: purchased R&D Systems 7955-IL
T1 sequence (Q16552 24-155): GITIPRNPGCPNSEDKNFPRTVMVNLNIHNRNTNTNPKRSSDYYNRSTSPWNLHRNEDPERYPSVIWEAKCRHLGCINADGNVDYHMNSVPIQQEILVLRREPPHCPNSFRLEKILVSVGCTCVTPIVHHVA
Description: Inhibition of recombinant IL-17AA-induced SEAP reporter gene activity in HEK-Blue IL-17 cells. The format is cell-based. The settings on record: recombinant IL-17A 2 ng/ml, overnight. How it is done:
Example 62: Inhibition of Recombinant IL-17AA-Induced SEAP Reporter Gene Activity in HEK-Blue™ IL-17 Cells
The assay was run according to the protocol provided by InvivoGen. Briefly, the HEK-Blue™ IL-17 cells (Invivogen, cat #hkb-il17) were suspended in the complete culture medium and seeded in a 96 well plate in a volume of 80 μl in a density of 50,000 cells per well the day before the assay. 10 μl of a solution of the test compounds were added in a serial gradient dilution to the cells followed by the addition of 10 μl IL-17A (R&D Systems cat #7955-IL) in a final concentration of 2 ng/ml. The plate was incubated overnight. The QUANTI-Blue™ solution was used to determine the SEAP activity; 180 μl QUANTI-Blue™ solution and 20 μl of the supernatant from the cell plate were mixed and incubated for 1 hour at 37 degrees Celsius. SEAP levels were measured using a spectrophotometer at 650 nm.

SMILES strings stand for the structures. Converted amounts (≈) assume the structure as drawn.

In the case of `Cc1c(-c2ccc(NC(=O)[C@@H](NC(=O)c3ccnn3C(C)C)C(C3CC3)C3CC3)nc2F)c(C(F)(F)F)cc[n+]1[O-]` (single isomer, unassigned) [Example 54], in data set [1], the “HLM Clapp” value is listed as 63 mL/min/kg. Moreover, the solubility at 24 h in “Solubility assay” was < 1 µg/mL.
As to `Cc1c(-c2ccc(NC(=O)[C@@H](NC(=O)c3ccnn3C(C)C)C(C3CC3)C3CC3)nc2F)ccc[n+]1[O-]` [Example 16, N-[(1S)-1-(dicyclopropylmethyl)-2-[[6-fluoro-5-(2-methyl-1-oxido-pyridin-1-ium-3-yl)-2-pyridyl]amino]-2-oxo-ethyl]-2-isopropyl-pyrazole-3-carboxamide], the “HLM Clapp” value in data set [1] is given as <8 mL/min/kg. In the data set “Solubility assay”, this compound yielded a solubility at 24 h of 60 µg/mL (≈ 118 µM).
For `CCc1c(-c2ccc(NC(=O)[C@@H](NC(=O)c3ccnn3C(C)C)C(C3CC3)C3CC3)nc2F)ccc[n+]1[O-]` [Example 5, N-[(1S)-1-(dicyclopropylmethyl)-2-[[5-(2-ethyl-1-oxido-pyridin-1-ium-3-yl)-6-fluoro-2-pyridyl]amino]-2-oxo-ethyl]-2-isopropyl-pyrazole-3-carboxamide] the same measures were <8 mL/min/kg and 35 µg/mL (≈ 67.2 µM).
For `CCOc1cc(-c2ccc(NC(=O)[C@@H](NC(=O)c3ccnn3C(C)C)C(C3CC3)C3CC3)nc2F)c(C)[n+]([O-])c1` [Example 10, N-[(1S)-1-(dicyclopropylmethyl)-2-[[5-(5-ethoxy-2-methyl-1-oxido-pyridin-1-ium-3-yl)-6-fluoro-2-pyridyl]amino]-2-oxo-ethyl]-2-isopropyl-pyrazole-3-carboxamide] the same measures were 22 mL/min/kg and 9 µg/mL (≈ 16.3 µM).
`Cc1c(-c2ccc(NC(=O)[C@@H](NC(=O)c3ccnn3C(C)C)C(C3CC3)C3CC3)nc2F)cc(OCF)c[n+]1[O-]` [Example 9, N-[(1S)-1-(dicyclopropylmethyl)-2-[[6-fluoro-5-[5-(fluoromethoxy)-2-methyl-1-oxido-pyridin-1-ium-3-yl]-2-pyridyl]amino]-2-oxo-ethyl]-2-isopropyl-pyrazole-3-carboxamide]: the “HLM Clapp” value in data set [1] is listed as <8 mL/min/kg. Moreover, in “Solubility assay”, the solubility at 24 h worked out at 23 µg/mL (≈ 41.5 µM).
Consider `Cc1cc[n+]([O-])cc1-c1ccc(NC(=O)[C@@H](NC(=O)c2ccnn2C(C)C)C(C2CC2)C2CC2)nc1F` [Example 15, N-[(1S)-1-(dicyclopropylmethyl)-2-[[6-fluoro-5-(4-methyl-1-oxido-pyridin-1-ium-3-yl)-2-pyridyl]amino]-2-oxo-ethyl]-2-isopropyl-pyrazole-3-carboxamide], for which the “HLM Clapp” value in data set [1] is listed as <8 mL/min/kg. The compound further yielded a solubility at 24 h in “Solubility assay” of 97 µg/mL (≈ 191 µM).
For `CC(C)n1nccc1C(=O)N[C@H](C(=O)Nc1ccc(-c2c[n+]([O-])ccc2C(F)(F)F)c(F)n1)C(C1CC1)C1CC1` [Example 6, N-[(1S)-1-(dicyclopropylmethyl)-2-[[6-fluoro-5-[1-oxido-4-(trifluoromethyl)pyridin-1-ium-3-yl]-2-pyridyl]amino]-2-oxo-ethyl]-2-isopropyl-pyrazole-3-carboxamide] the same measures were 14 mL/min/kg and 5 µg/mL (≈ 8.92 µM).
In the case of `Cc1c(-c2ccc(NC(=O)[C@@H](NC(=O)c3ccnn3C(C)C)C(C3CC3)C3CC3)nc2F)cc(Cl)c[n+]1[O-]` [Example 11, N-[(1S)-1-[[5-(5-chloro-2-methyl-1-oxido-pyridin-1-ium-3-yl)-6-fluoro-2-pyridyl]carbamoyl]-2,2-dicyclopropyl-ethyl]-2-isopropyl-pyrazole-3-carboxamide], the “HLM Clapp” value in data set [1] was <8 mL/min/kg. Further, in the data set “Solubility assay”, the solubility at 24 h worked out at 6.5 µg/mL (≈ 12 µM).
As for `Cc1cc(-c2ccc(NC(=O)[C@@H](NC(=O)c3ccnn3C(C)C)C(C3CC3)C3CC3)nc2F)c(C2CC2)[n+]([O-])c1` [Example 13, N-[(1S)-2,2-dicyclopropyl-1-[[5-(2-cyclopropyl-5-methyl-1-oxido-pyridin-1-ium-3-yl)-6-fluoro-2-pyridyl]carbamoyl]ethyl]-2-isopropyl-pyrazole-3-carboxamide], the “HLM Clapp” value in data set [1] is 14 mL/min/kg. The solubility at 24 h in the data set “Solubility assay” is 26 µg/mL (≈ 47.6 µM).
As to `CCc1c(-c2ccc(NC(=O)[C@@H](NC(=O)c3ccnn3C(C)C)C(C3CC3)C3CC3)nc2F)cc(OC)c[n+]1[O-]` [Example 60, N-[(1S)-1-(dicyclopropylmethyl)-2-[[6-fluoro-5-(5-methoxy-2-ethyl-1-oxido-pyridin-1-ium-3-yl)-2-pyridyl]amino]-2-oxo-ethyl]-2-isopropyl-pyrazole-3-carboxamide], at recombinant IL-17AA, the EC50 worked out at 31 nM.
Take `CCc1cc[n+]([O-])cc1-c1ccc(NC(=O)[C@@H](NC(=O)c2ccnn2C(C)C)C(C2CC2)C2CC2)nc1F` [Example 53, N-[(1S)-1-(dicyclopropylmethyl)-2-[[5-(4-ethyl-1-oxido-pyridin-1-ium-3-yl)-6-fluoro-2-pyridyl]amino]-2-oxo-ethyl]-2-isopropyl-pyrazole-3-carboxamide]: in data set [1], the “HLM Clapp” value is reported as <8 mL/min/kg. The compound further had a solubility at 24 h in the data set “Solubility assay” of 39 µg/mL (≈ 74.9 µM).
Consider `Cc1c(-c2ccc(NC(=O)[C@@H](NC(=O)c3ccnn3C(C)C)C(C3CC3)C3CC3)nc2F)c(C(F)(F)F)cc[n+]1[O-]` (single isomer, unassigned) [Example 55], for which the “HLM Clapp” value in data set [1] is reported as 41 mL/min/kg. In addition, the “Solubility at pH 6.5” value in “Solubility assay” is given as <1 μg/mL.
`Cc1c(-c2ccc(NC(=O)[C@@H](NC(=O)c3ccnn3C(C)C)C(C3CC3)C3CC3)nc2F)c[n+]([O-])cc1C(F)F` [Example 48, N-[(1S)-1-(dicyclopropylmethyl)-2-[[5-[5-(difluoromethyl)-4-methyl-1-oxido-pyridin-1-ium-3-yl]-6-fluoro-2-pyridyl]amino]-2-oxo-ethyl]-2-isopropyl-pyrazole-3-carboxamide]: in data set [1], the “HLM Clapp” value is reported as <8 mL/min/kg. Also, the solubility at 24 h in the data set “Solubility assay” was 19 µg/mL (≈ 34.1 µM).
`CC(C)n1nccc1C(=O)N[C@H](C(=O)Nc1ccc(-c2ccc[n+]([O-])c2C2CC2)c(F)n1)C(C1CC1)C1CC1` [Example 7, N-[(1S)-2,2-dicyclopropyl-1-[[5-(2-cyclopropyl-1-oxido-pyridin-1-ium-3-yl)-6-fluoro-2-pyridyl]carbamoyl]ethyl]-2-isopropyl-pyrazole-3-carboxamide]: the “HLM Clapp” value in data set [1] is on record as <8 mL/min/kg. Moreover, the solubility at 24 h in the data set “Solubility assay” was found to be 38 µg/mL (≈ 71.3 µM).
On the same counts, the results for `Cc1c(-c2ccc(NC(=O)[C@@H](NC(=O)c3ccnn3C(C)C)C(C3CC3)C3CC3)nc2Cl)cc(F)c[n+]1[O-]` [Example 19, N-[(1S)-1-[[6-chloro-5-(5-fluoro-2-methyl-1-oxido-pyridin-1-ium-3-yl)-2-pyridyl]carbamoyl]-2,2-dicyclopropyl-ethyl]-2-isopropyl-pyrazole-3-carboxamide] are <8 mL/min/kg and 18 µg/mL (≈ 33.3 µM).
Turning to `CC(C)n1nccc1C(=O)N[C@H](C(=O)Nc1ccc(-c2c[n+]([O-])cc(F)c2C(F)(F)F)c(F)n1)C(C1CC1)C1CC1` [Example 50, N-[(1S)-1-(dicyclopropylmethyl)-2-[[6-fluoro-5-[5-fluoro-1-oxido-4-(trifluoromethyl)pyridin-1-ium-3-yl]-2-pyridyl]amino]-2-oxo-ethyl]-2-isopropyl-pyrazole-3-carboxamide], in data set [1], the “HLM Clapp” value is listed as 10 mL/min/kg. In addition, in the data set “Solubility assay”, the solubility at 24 h was < 1 µg/mL.
On to `Cc1cc(-c2ccc(NC(=O)[C@@H](NC(=O)c3conc3C(C)C)C(C3CC3)C3CC3)nc2F)c(C)[n+]([O-])c1` [Example 22, N-[(1S)-1-(dicyclopropylmethyl)-2-[[5-(2,5-dimethyl-1-oxido-pyridin-1-ium-3-yl)-6-fluoro-2-pyridyl]amino]-2-oxo-ethyl]-3-isopropyl-isoxazole-4-carboxamide], for which the “HLM Clapp” value in data set [1] was 73 mL/min/kg. This compound also registered a solubility at 24 h in “Solubility assay” of 28 µg/mL (≈ 53.7 µM).
For the compound `CC(C)n1nccc1C(=O)N[C@H](C(=O)Nc1ccc(-c2c[n+]([O-])ccc2C(F)F)c(F)n1)C(C1CC1)C1CC1` [Example 51, N-[(1S)-1-(dicyclopropylmethyl)-2-[[5-[4-(difluoromethyl)-1-oxido-pyridin-1-ium-3-yl]-6-fluoro-2-pyridyl]amino]-2-oxo-ethyl]-2-isopropyl-pyrazole-3-carboxamide], in data set [1], the “HLM Clapp” value is <8 mL/min/kg. This compound gave a solubility at 24 h in “Solubility assay” of 25 µg/mL (≈ 46.1 µM).
On the same counts, the results for `Cc1c(-c2ccc(NC(=O)[C@@H](NC(=O)c3ccnn3C(C)C)C(C3CC3)C3CC3)nc2F)cc(C(F)(F)F)c[n+]1[O-]` [Example 12, N-[(1S)-1-(dicyclopropylmethyl)-2-[[6-fluoro-5-[2-methyl-1-oxido-5-(trifluoromethyl)pyridin-1-ium-3-yl]-2-pyridyl]amino]-2-oxo-ethyl]-2-isopropyl-pyrazole-3-carboxamide] are <8 mL/min/kg and 6 µg/mL (≈ 10.4 µM).

Broadly, the solubility is how much of the substance goes into solution per volume. A high value points to a readily soluble substance. Usually EC50 stands for the concentration that produces a half-maximal response. Usually Solubility stands for the concentration that dissolves in the medium under given conditions. A higher Solubility goes with a readily soluble substance.

The record behind these values is patent publication US12065429B2, “Small molecule modulators of IL-17” (LEO Pharma A/S, priority 2022, dated 2024).
